Laboratory results published in US12385076B2, “Preparation and application of high-activity and high-safety cardamine violifolia selenoprotein standard sample” (priority 2022, dated 2025).

Tested on: rat liver
Test: Safety animal testing: 3-month repeated oral administration, liver lesions
Format: in vivo
Settings: male rats, repeated oral administration for 3 months; dose equivalent to 96 μgSe/kg BW for the human body

O=[Se](O)O [sodium selenite]
liver lesions: caused liver lesions
